# Data published in US20040142821A1, “Pesticide composition comprising malononitrile compounds” (priority 2001, published 2004).
# Experiments:
# Cullex pipiens pallens = experiment: whole plant or invertebrate; settings: 24 h
# Experimental: In 100 ml of ion-exchanged water, the test liquid had been prepared as described above, was added dropwise in an amount of 0.7 ml (the concentration of active ingredient was 3.5 ppm). Twenty final-instar larvae of Cullex pipiens pallens (common mosquito) were set free in the solution. After 1 days, their survival was examined to determine the mortality.
# Musca domestics = experiment: Pesticidal test against Musca domestics, treated filter paper with sucrose bait (Test Example 5); type: in vivo; settings: 500 ppm test liquid (Formulation Example 5), 0.7 ml on filter paper, ten female adults, after 24 hours
# Experimental: Ten female adults of Musca domestics (house fly) were set free in the polyethylene cup, which was then kept covered. After 24 hours, their survival was examined to determine the mortality.
# German cockroach = experiment: Pesticidal test against German cockroach, treated filter paper with sucrose bait (Test Example 6); type: in vivo; settings: Blattella germanica, 144 h; 500 ppm test liquid (Formulation Example 5), 0.7 ml on filter paper; two male adults; after 6 days
# Excerpt: Two male adults of German cockroach (Blattalla germanica) were set free in the polyethylene cup, which was then kept covered. After 6 days, their survival was examined to determine the mortality.
compound,measurement,setting,value
"C=CCC(C#N)(C#N)C(OC)c1ccc(C#N)cc1 (stereo not drawn) [Compound 83, 2-allyl-2-(4-cyano-α-methoxybenzyl)malononitrile]",mortality at 3.5 µg/mL,Cullex pipiens pallens,100%
"C=CCCC(C#N)(C#N)Cc1ccc(OC(F)(F)Br)cc1 [Compound 35, 2-(3-butenyl)-2-(4-(bromodifluoromethoxy)benzyl)malononitrile]",mortality at 500 ppm,Musca domestics,100%
same,mortality at 3.5 µg/mL,Cullex pipiens pallens,100%
"C=CCC(C#N)(C#N)Cc1ccc(OCC)cc1 [Compound 44, 2-allyl-2-(4-ethoxybenzyl)malononitrile]",mortality at 3.5 µg/mL,Cullex pipiens pallens,100%
"C=CCC(C#N)(C#N)Cc1ccc(Oc2ccc(Cl)cc2)cc1 [Compound 121, 2-allyl-2-(4-(p-chlorophenoxy)benzyl)malononitrile]",mortality at 500 ppm,German cockroach,100%
same,mortality at 3.5 µg/mL,Cullex pipiens pallens,100%
"C=CCCC(C#N)(C#N)Cc1c(Cl)cc(C(F)(F)F)cc1Cl [Compound 65, 2-(3-butenyl)-2-(2,6-dichloro-4-(trifluoromethyl)benzyl)malononitrile]",mortality at 500 ppm,Musca domestics,100%
same,mortality at 3.5 µg/mL,Cullex pipiens pallens,100%
"C=CCC(C#N)(C#N)C(C#N)c1ccc(OC)cc1 (stereo not drawn) [Compound 91, 2-allyl-2-(4-methoxy-α-cyanobenzyl)malononitrile]",mortality at 3.5 µg/mL,Cullex pipiens pallens,100%
"CCCCCC(C#N)(C#N)Cc1ccc(C(F)(F)F)cc1 [Compound 104, 2-pentyl-2-(4-(trifluoromethyl)benzyl)malononitrile]",mortality at 3.5 µg/mL,Cullex pipiens pallens,100%
"C=CCC(C#N)(C#N)Cc1ccc(OC(C)CC)cc1 (stereo not drawn) [Compound 115, 2-allyl-2-(4-(2-butyloxy)benzyl)malononitrile]",mortality at 500 ppm,Musca domestics,100%
same,mortality at 3.5 µg/mL,Cullex pipiens pallens,100%
"CC(C)=CCC(C#N)(C#N)Cc1ccc(Cl)cc1 [Compound 25, 2-(4-chlorobenzyl)-2-(3-methyl-2-butenyl)malononitrile]",mortality at 3.5 µg/mL,Cullex pipiens pallens,100%
"CC(C)CCC(C#N)(C#N)Cc1ccc(C(F)(F)F)cc1 [Compound 105, 2-(3-methylbutyl)-2-(4-(trifluoromethyl)benzyl)malononitrile]",mortality at 500 ppm,Musca domestics,100%
same,mortality at 3.5 µg/mL,Cullex pipiens pallens,100%
"C=CCCC(C#N)(C#N)Cc1ccc(OC(C)C)cc1 [Compound 100, 2-(3-butenyl)-2-(4-isopropoxybenzyl)malononitrile]",mortality at 3.5 µg/mL,Cullex pipiens pallens,100%
"C=CCC(C#N)(C#N)C(C#N)c1ccc(C)cc1 (stereo not drawn) [Compound 92, 2-allyl-2-(4-methyl-α-cyanobenzyl)malononitrile]",mortality at 500 ppm,Musca domestics,100%
same,mortality at 3.5 µg/mL,Cullex pipiens pallens,100%
"C=CCC(C#N)(C#N)Cc1cccc(F)c1F [Compound 114, 2-allyl-2-(2,3-difluorobenzyl)malononitrile]",mortality at 500 ppm,Musca domestics,100%
same,mortality at 500 ppm,German cockroach,100%
"C=C(C)CC(C#N)(C#N)Cc1ccc(C(F)(F)F)cc1 [Compound 108, 2-(2-methyl-2-propenyl)-2-(4-(trifluoromethyl)benzyl)malononitrile]",mortality at 500 ppm,Musca domestics,100%
same,mortality at 3.5 µg/mL,Cullex pipiens pallens,100%
"C=CCC(C#N)(C#N)Cc1ccc(Oc2cccc(C)c2)cc1 [Compound 119, 2-allyl-2-(4-(m-tolyloxy)benzyl)malononitrile]",mortality at 500 ppm,German cockroach,100%
"C=CCC(C#N)(C#N)C(OCC)c1ccc(OC(F)(F)F)cc1 (stereo not drawn) [Compound 82, 2-allyl-2-(4-(trifluoromethoxy)-α-ethoxybenzyl)malononitrile]",mortality at 500 ppm,Musca domestics,100%
same,mortality at 3.5 µg/mL,Cullex pipiens pallens,100%
"C=CCC(C#N)(C#N)C(c1ccc(OC(F)(F)F)cc1)C(C)(C)C (stereo not drawn) [Compound 103, 2-allyl-2-(1-(4-(trifluoromethoxy)phenyl)-2,2-dimethylpropyl)malononitrile]",mortality at 3.5 µg/mL,Cullex pipiens pallens,100%
"CC=CCC(C#N)(C#N)Cc1ccc(C(F)(F)F)cc1 [Compound 107, 2-(2-butenyl)-2-(4-(trifluoromethyl)benzyl)malononitrile]",mortality at 500 ppm,Musca domestics,100%
same,mortality at 3.5 µg/mL,Cullex pipiens pallens,100%
"C=CCCC(C#N)(C#N)Cc1ccc(C#N)cc1 [Compound 6, 2-(3-butenyl)-2-(4-cyanobenzyl)malononitrile]",mortality at 3.5 µg/mL,Cullex pipiens pallens,100%
"C=CCCC(C#N)(C#N)Cc1ccc(OC(C)=O)cc1 [Compound 78, 2-(3-butenyl)-2-(4-(acetyloxy)benzyl)malononitrile]",mortality at 3.5 µg/mL,Cullex pipiens pallens,100%
"C=CCCC(C#N)(C#N)Cc1ccc(OCC)cc1 [Compound 98, 2-(3-butenyl)-2-(4-ethoxybenzyl)malononitrile]",mortality at 3.5 µg/mL,Cullex pipiens pallens,100%
"C=CCC(C#N)(C#N)Cc1ccc(C(F)(F)F)cc1[N+](=O)[O-] [Compound 63, 2-allyl-2-(2-nitro-4-(trifluoromethyl)benzyl)malononitrile]",mortality at 3.5 µg/mL,Cullex pipiens pallens,100%
"CCCCC(C)C(C#N)(C#N)Cc1ccc(C(F)(F)F)cc1 (stereo not drawn) [Compound 113, 2-(1-methylpentyl)-2-(4-(trifluoromethyl)benzyl)malononitrile]",mortality at 3.5 µg/mL,Cullex pipiens pallens,100%
"CCCC(C#N)(C#N)Cc1ccc(C(F)(F)F)cc1 [Compound 71, 2-propyl-2-(4-(trifluoromethyl)benzyl)malononitrile]",mortality at 500 ppm,Musca domestics,100%
same,mortality at 3.5 µg/mL,Cullex pipiens pallens,100%
"C=CCC(C#N)(C#N)Cc1ccc(Br)cc1 [Compound 13, 2-allyl-2-(4-bromobenzyl)malononitrile]",mortality at 3.5 µg/mL,Cullex pipiens pallens,100%
"CC(C)=CCC(C#N)(C#N)Cc1ccc(C(F)(F)F)cc1 [Compound 106, 2-(3-methyl-2-butenyl)-2-(4-(trifluoromethyl)benzyl)malononitrile]",mortality at 3.5 µg/mL,Cullex pipiens pallens,100%
"C=CCCC(C#N)(C#N)Cc1ccc(OCC=C)cc1 [Compound 38, 2-(3-butenyl)-2-(4-(2-propenyloxy)benzyl)malononitrile]",mortality at 3.5 µg/mL,Cullex pipiens pallens,100%
"CCC(C)C(C#N)(C#N)Cc1ccc(C(F)(F)F)cc1 (stereo not drawn) [Compound 111, 2-(1-methylpropyl)-2-(4-(trifluoromethyl)benzyl)malononitrile]",mortality at 500 ppm,Musca domestics,100%
same,mortality at 3.5 µg/mL,Cullex pipiens pallens,100%
"CCCC(C)C(C#N)(C#N)Cc1ccc(C(F)(F)F)cc1 (stereo not drawn) [Compound 112, 2-(1-methylbutyl)-2-(4-(trifluoromethyl)benzyl)malononitrile]",mortality at 3.5 µg/mL,Cullex pipiens pallens,100%
"C=CCC(C#N)(C#N)C(C)(C)c1cccc(Cl)c1 [Compound 48, 2-allyl-2-(1-(3-chlorophenyl)-1-methylethyl)malononitrile]",mortality at 3.5 µg/mL,Cullex pipiens pallens,100%
"C=CCC(C#N)(C#N)Cc1cccc(OC)c1 [Compound 28, 2-allyl-2-(3-methoxybenzyl)malononitrile]",mortality at 3.5 µg/mL,Cullex pipiens pallens,100%
"C=CCC(C#N)(C#N)Cc1ccc(OC)cc1 [Compound 29, 2-allyl-2-(4-methoxybenzyl)malononitrile]",mortality at 3.5 µg/mL,Cullex pipiens pallens,100%
"CC(C)=CCC(C#N)(C#N)Cc1ccc(OC(F)(F)F)cc1 [Compound 27, 2-(3-methyl-2-butenyl)-2-(4-(trifluoromethoxy)benzyl)malononitrile]",mortality at 3.5 µg/mL,Cullex pipiens pallens,100%
"C=CCC(C#N)(C#N)Cc1c(Cl)cccc1Cl [Compound 54, 2-allyl-2-(2,6-dichlorobenzyl)malononitrile]",mortality at 3.5 µg/mL,Cullex pipiens pallens,100%
"CCC(C#N)(C#N)Cc1ccc(C(F)(F)F)cc1 [Compound 75, 2-ethyl-2-(4-(trifluoromethyl)benzyl)malononitrile]",mortality at 500 ppm,Musca domestics,100%
same,mortality at 3.5 µg/mL,Cullex pipiens pallens,100%
"C=CCCC(C#N)(C#N)Cc1ccc(C(F)(F)F)cc1[N+](=O)[O-] [Compound 67, 2-(3-butenyl)-2-(2-nitro-4-(trifluoromethyl)benzyl)malononitrile]",mortality at 500 ppm,Musca domestics,100%
same,mortality at 3.5 µg/mL,Cullex pipiens pallens,100%
"C=CCC(C#N)(C#N)Cc1cccc(Oc2ccccc2)c1 [Compound 118, 2-allyl-2-(3-phenoxybenzyl)malononitrile]",mortality at 3.5 µg/mL,Cullex pipiens pallens,100%
"C=CCC(C#N)(C#N)Cc1ccc(C(C)=O)cc1 [Compound 97, 2-(4-acetylbenzyl)-2-allylmalononitrile]",mortality at 3.5 µg/mL,Cullex pipiens pallens,100%
"C=CCC(C#N)(C#N)Cc1ccc(F)c(Oc2ccccc2)c1 [Compound 116, 2-allyl-2-(4-fluoro-3-phenoxybenzyl)malononitrile]",mortality at 3.5 µg/mL,Cullex pipiens pallens,100%
"C=CCCC(C#N)(C#N)Cc1cccc(OC(F)(F)F)c1 [Compound 90, 2-(3-butenyl)-2-(3-(trifluoromethoxy)benzyl)malononitrile]",mortality at 500 ppm,Musca domestics,100%
"C=CCCC(C#N)(C#N)Cc1ccc(OCCC)cc1 [Compound 99, 2-(3-butenyl)-2-(4-propoxybenzyl)malononitrile]",mortality at 3.5 µg/mL,Cullex pipiens pallens,100%
"C=CCC(C#N)(C#N)Cc1ccc(S(C)(=O)=O)cc1 [Compound 61, 2-allyl-2-(4-(methylsulfonyl)benzyl)malononitrile]",mortality at 3.5 µg/mL,Cullex pipiens pallens,100%
"CC(C)CCC(C#N)(C#N)Cc1ccc(OC(F)(F)F)cc1 [Compound 45, 2-(3-methylbutyl)-2-(4-(trifluoromethoxy)benzyl)malononitrile]",mortality at 500 ppm,Musca domestics,100%
same,mortality at 3.5 µg/mL,Cullex pipiens pallens,100%
"C=CCCC(C#N)(C#N)Cc1ccc(OCC(F)(F)F)cc1 [Compound 81, 2-(3-butenyl)-2-(4-(2,2,2-trifluoroethoxy)benzyl)malononitrile]",mortality at 3.5 µg/mL,Cullex pipiens pallens,100%
"C=CCCC(C#N)(C#N)Cc1ccc(OC(F)(F)C(F)F)cc1 [Compound 80, 2-(3-butenyl)-2-(4-(1,1,2,2-tetrafluoroethoxy)benzyl)malononitrile]",mortality at 3.5 µg/mL,Cullex pipiens pallens,100%
"C=CCC(C#N)(C#N)Cc1ccc(SC)cc1 [Compound 70, 2-allyl-2-(4-(methylthio)benzyl)malononitrile]",mortality at 3.5 µg/mL,Cullex pipiens pallens,100%
"C=CCCCC(C#N)(C#N)Cc1ccc(C#N)cc1 [Compound 7, 2-(4-cyanobenzyl)-2-(4-pentenyl)malononitrile]",mortality at 3.5 µg/mL,Cullex pipiens pallens,100%
"C=CCC(C#N)(C#N)Cc1ccc(CC)cc1 [Compound 101, 2-allyl-2-(4-ethylbenzyl)malononitrile]",mortality at 500 ppm,Musca domestics,100%
same,mortality at 3.5 µg/mL,Cullex pipiens pallens,100%
"C#CCC(C#N)(C#N)C(C=C)c1ccc(OC(F)(F)F)cc1 (stereo not drawn) [Compound 34, 2-(2-propynyl)-2-(1-(4-(trifluoromethoxy)phenyl)-2-propenyl)malononitrile]",mortality at 500 ppm,Musca domestics,100%
same,mortality at 3.5 µg/mL,Cullex pipiens pallens,100%
